For experiment [1], the system named is Peripheral blood mononuclear cells (PBMCs) mixed with mitomycin C treated RPMI1788 cells. In words: Mixed lymphocyte reaction (MLR) assay, 3H-thymidine uptake.
Description: In the MLR assay PBMCs from two individuals are mixed together in tissue culture for several days. […] In the one-way MLR test, the mononuclear cells from one of the individuals are inactivated (usually by treatment with mitomycin C or irradiation), thereby allowing only the untreated remaining population of mononuclear cells, such as lymphocytes, to proliferate in response to foreign histocompatibility antigens.
The immunosuppressive effect of test compounds was also investigated using MLR assays. Peripheral blood mononuclear cells (PBMCs) were isolated from heparinized blood of healthy donors by density-gradient centrifugation over Lymphoprep. […] RPMI1788 cells were treated with 30 μg/mL mitomycin C for 20 min at 37° C., washed four times with medium, and finally suspended in complete RPMI medium to a density of 0.45×10^6 cells/mL. An amount of 100 μL of each cell suspension was mixed with 20 μL of diluted compound. The mixed cells were cultured at 37° C. for 6 days in 5% CO2. […] Thereafter, the cells were harvested on glass filter paper and the counts per minute (cpm) determined in a liquid scintillation counter.
A further experiment deals with T1, LOK (Homo sapiens, UniProt O94804).
T1 construct: made in house; host or cells: E. coli BL21-derived host (T7 phage) or HEK-293
Description: Kinase-tagged phage competition binding assay (qPCR), 382-kinase library. In general terms: Quantitative PCR measures a nucleic acid by following its amplification.

Where two headings read alike, the source gives them in different places.

Drawing on patent US9301961B2, “Autoimmune and inflammatory disorder therapy” (Katholieke Universiteit Leuven, K.U. Leuven R&D, priority 2011, dated 2016), this text covers IC50 and inhibition for 1 molecule.

T1 sequence (O94804 whole entry): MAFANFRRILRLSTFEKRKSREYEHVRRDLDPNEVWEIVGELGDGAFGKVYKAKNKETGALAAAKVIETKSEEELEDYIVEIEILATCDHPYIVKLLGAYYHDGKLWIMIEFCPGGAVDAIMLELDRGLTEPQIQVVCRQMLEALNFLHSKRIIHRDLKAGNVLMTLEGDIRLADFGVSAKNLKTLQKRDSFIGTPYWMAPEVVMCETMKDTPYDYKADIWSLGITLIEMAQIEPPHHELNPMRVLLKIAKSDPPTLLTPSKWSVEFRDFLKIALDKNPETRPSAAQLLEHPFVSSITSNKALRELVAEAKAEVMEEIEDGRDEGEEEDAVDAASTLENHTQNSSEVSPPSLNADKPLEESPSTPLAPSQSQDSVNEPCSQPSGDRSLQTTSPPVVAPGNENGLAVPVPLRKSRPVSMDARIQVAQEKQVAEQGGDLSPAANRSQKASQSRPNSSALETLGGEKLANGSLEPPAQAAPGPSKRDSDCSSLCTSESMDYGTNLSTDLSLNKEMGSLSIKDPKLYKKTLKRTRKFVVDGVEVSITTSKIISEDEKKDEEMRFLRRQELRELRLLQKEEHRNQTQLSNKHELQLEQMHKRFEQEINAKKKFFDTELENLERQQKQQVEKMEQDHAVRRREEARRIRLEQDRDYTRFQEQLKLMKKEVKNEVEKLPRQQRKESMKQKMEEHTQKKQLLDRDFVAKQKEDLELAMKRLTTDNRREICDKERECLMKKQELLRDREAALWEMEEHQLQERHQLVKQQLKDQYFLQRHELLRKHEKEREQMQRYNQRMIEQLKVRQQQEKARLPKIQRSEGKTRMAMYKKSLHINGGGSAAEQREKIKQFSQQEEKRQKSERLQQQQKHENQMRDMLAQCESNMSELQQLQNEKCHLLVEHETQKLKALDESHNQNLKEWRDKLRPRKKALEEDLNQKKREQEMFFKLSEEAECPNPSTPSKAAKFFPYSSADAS

A word on the IC50: it is the concentration at which inhibition is half-maximal. The inhibition is the percentage by which the read-out fell short of the control. Regarding `Nc1nc(N2CCN(C(=O)COc3ccc(Cl)cc3)CC2)c2nc(-c3cccnc3)sc2n1` [formula (1), 5-amino-7-[4-(4-chlorophenoxyacetyl)piperazin-1-yl]-2-(pyridin-3-yl)thiazolo[5,4-d]pyrimidine], the half-maximal inhibitory concentration (IC50) in experiment [1] (RPMI-1788, 144 h, read-out: IC50 MLR, 6 days culture) was below 50 nM; in experiment [1] (read-out: IC50 MLR, 6 days culture), 30 nM; at LOK (stated for the 8 kinases of Table 1), below 10000 nM. Besides, on LOK (10 μM compound, read-out: % Inhibition of substrate binding), the inhibition at 10 µM is 100%.
